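Briefly, cells in 96-well plates were exposed to five compound concentrations for 48 h, and endpoints were estimated by linear interpolation. Here, GI50 denotes the concentration required for 50% inhibition of growth. TGI: total growth inhibition.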
What was measured:
Assay in all cases: inhibition of tumour cell growth, NCI panel, 48 h
ACHN renal = test system: ACHN renal
KM12 colon = test system: KM12 colon
M14 melanoma = test system: M14 melanoma
MCF7 breast = test system: MCF7 breast
NCI-H23 lung = test system: NCI-H23 lung
NCI/ADR-RES ovarian = test system: NCI/ADR-RES ovarian
OVCAR-3 ovarian = test system: OVCAR-3 ovarian
SF-539 CNS = test system: SF-539 CNS
SNB-75 CNS = test system: SNB-75 CNS
TK-10 renal = test system: TK-10 renal

Row | Compound | GI50 (ACHN renal) [µM] | TGI (ACHN renal) [µM] | GI50 (KM12 colon) [µM] | TGI (KM12 colon) [µM] | GI50 (M14 melanoma) [µM] | TGI (M14 melanoma) [µM] | GI50 (MCF7 breast) [µM] | TGI (MCF7 breast) [µM] | GI50 (NCI-H23 lung) [µM] | TGI (NCI-H23 lung) [µM] | GI50 (NCI/ADR-RES ovarian) [µM] | TGI (NCI/ADR-RES ovarian) [µM] | GI50 (OVCAR-3 ovarian) [µM] | TGI (OVCAR-3 ovarian) [µM] | GI50 (SF-539 CNS) [µM] | TGI (SF-539 CNS) [µM] | GI50 (SNB-75 CNS) [µM] | TGI (SNB-75 CNS) [µM] | GI50 (TK-10 renal) [µM] | TGI (TK-10 renal) [µM]
1 | N[C@@H]1CCCN(c2c(/C=C3\SC(=O)NC3=O)cccc2-c2ccccc2)C1 | 14.4 | 29.5 | 14.2 | 28.9 | 11.1 | 25.8 | 11.4 | 27.1 | 15.3 | 33.1 | 17.4 | 40.4 | 15.3 | 29.4 | 8.09 | 22.2 | 3.31 | 17.5 | 13.6 | 26.8
2 | Cc1nc2n(c(=O)c1CCN1CCC(c3noc4cc(F)ccc34)CC1)CCCC2 | > 50 | > 50 | > 50 | > 50 | > 50 | > 50 | > 50 | > 50 | > 50 | > 50 | > 50 | > 50 | > 50 | > 50 | > 50 | > 50 | > 50 | > 50 | > 50 | > 50
3 | CCCCCCCC(=O)SCC/C=C/[C@@H]1CC(=O)NCc2nc(co2)C2=N[C@@](C)(CS2)C(=O)N[C@@H](C(C)C)C(=O)O1 | 0.0475 | 0.32 | 0.0253 | 1.61 | 0.0205 | > 50 | 0.0311 | > 50 | 0.0411 |  | 0.606 | > 31.6 | 0.0241 | 0.156 | 0.0182 | > 50 | 0.0108 | > 50 | 0.0117 | 0.126
